The source of these data is patent publication US5670492A, “DC-89 derivatives” (priority 1994, dated 1997).

Molecules are shown by their SMILES. In brackets after ≈: the same amount, converted by molar mass. Where two headings read alike, the source gives them in different places.

The term IC50 denotes the concentration that inhibits the measured activity by half. A word on the solubility: it is how much of the substance goes into solution per volume. Low values mean little dissolved substance, high ones much dissolved substance.

One data set relates to various bacteria. The conditions noted are these: cited from earlier work.
Another data set has as its system melanoma B-16. To be noted: cited from earlier work.
The subject of a further data set is HeLaS3 cells. Put plainly: Growth Inhibitory Effect Against HeLaS3 cells. The class given is cell-based. The conditions noted are these: Homo sapiens. The procedure: HeLaS3 cells were suspended in MEM medium containing 10% calf serum and 2 mM glutamine to a concentration of 2.67×10^4 cells/mi. The cell suspension thus prepared was put into wells of a 24-well culture plate in an amount of 0.75 ml per well. After the cells were incubated in a CO2 incubator overnight at 37° C., Compound (I) which had been appropriately diluted with a culture medium was added to each well in an amount of 0.25 ml.
The cells were further incubated in the CO2 incubator for 72 hours, and the culture supernatant was removed. Then, the cells were dispersed in a solution of trypsin and EDTA and recovered. The number of cells was counted using a cell counter. The concentration (IC50) of Compound (I) at which the growth of the cells is inhibited by 50% was calculated by comparing the number of untreated cells with the number of the cells treated with Compound (I) at known concentrations.

A further data set deals with Sarcoma 180 tumor. Put plainly: Therapeutic Effect Against Sarcoma 180 Tumor. Format: in vivo, male ddY-strain mice. To be noted: Mus musculus, Sarcoma-180, iv, 168 h, read-out: T/C. The method, then:
Five male ddY-strain mice each weighing 18-20 g were used for each group as test animals, and 5×10^5 Sarcoma 180 tumor cells were implanted at the axilla subcutaneously. One day after the implantation, 0.2 ml of a physiological saline containing Compound (I) at the concentration shown in Table 2 was intravenously administered to each mouse. T/C [T: average tumor volume (mm^3) of the group treated with the test compound, C: average tumor volume (mm^3) of the control group (to which […] of a physiological saline was intravenously administered)] was determined seven days after the implantation.

The next data set has as its system ddY-strain male mice. Put plainly: Acute Toxicity. The class given is in vivo. To be noted: i.v., mortality at 14 days after administration. The method, then: Compound (I) was intravenously administered to ddY-strain male mice each weighing 20±1 g. MLD (minimum lethal dose) was determined by observing the mortality at 14 days after administration.
Data set [1] can be described thus: Test for Solubility in Water. To be noted: room temperature. The class given is physicochemical. The procedure:
A sample tube was charged with 0.7 mg of Compound (I), and 30 μl of water were added thereto at room temperature. The mixture was stirred, and the solubility in water was measured. When the compound was not dissolved, 30 μl of water was added thereto successively, and the mixture was stirred. The solubility in water was measured when the compound was dissolved.

For data set [2] the following is noted: when used as injections; cited from earlier work.
[3] abbreviates: HeLa S3, 72 hours, read-out: IC50.

For the molecule `COC(=O)C1(C)Nc2c(O)cc3c(c2C1=O)CC(Br)CN3C(=O)c1cc2cc(OC)c(OC)c(OC)c2[nH]1` (stereo not drawn) [DC-89B1], the antibacterial activity entry in the data set with various bacteria is recorded as “antibacterial activity against various bacteria”. The antitumor activity entry with melanoma B-16 is on record as “antitumor activity against melanoma B-16”.
In the case of `COC(=O)c1cc2c([nH]1)C(=O)C=C1N(C(=O)c3cc4cc(OC)c(OC)c(OC)c4[nH]3)CC3CC123` (stereo not drawn) [DC113], in the data set with various bacteria, the antibacterial activity entry is reported as “antibacterial activity against various bacteria”. In addition, the antitumor activity result in the data set on melanoma B-16 was “anti-tumor activity against melanoma B-16”.
Take `COC(=O)c1c(C)[nH]c2c(OC(=O)NN(C)C)cc3c(c12)C(CBr)CN3C(=O)/C=C/c1ccc(OC)c(N(C)C)c1` (stereo not drawn) [Compound 62]: in the data set on HeLaS3 cells (setting [3]), the IC50 is 0.62 nM. Further, the response vs control in vivo at 2 mg/kg in the data set on Sarcoma 180 tumor (2.0 mg/kg, single i.v. one day after s.c. implantation, tumor volume ratio seven days after implantation) worked out at 19%. Moreover, the “MLD (minimum lethal dose)” value in the data set with ddY-strain male mice is given as 2.0 mg/kg. In data set [1], the solubility is more than 20 mg/mL.
The molecule `COC(=O)c1c(C)[nH]c2c(OC(C)=O)cc3c(c12)C(CBr)CN3C(=O)/C=C/c1ccc(OC)c(N(C)C)c1` (stereo not drawn) [Compound 45] displayed an IC50 in the data set on HeLaS3 cells (HeLa S3, 72 h) of 0.54 nM. In the data set with Sarcoma 180 tumor, the response vs control in vivo at 1 mg/kg worked out at 20%. In addition, in the data set on ddY-strain male mice, the “MLD (minimum lethal dose)” value is on record as 1.0 mg/kg. This molecule had a solubility in data set [1] of more than 20 mg/mL.
Take `COC(=O)c1c(C)[nH]c2c(OC(=O)N3CCN(C)CC3)cc3c(c12)C(CBr)CN3C(=O)/C=C/c1ccc(OC)nc1` (stereo not drawn) [Compound 3]: inhibition in the data set with HeLaS3 cells (HeLa S3, 72 h) was half-maximal at 110 nM (IC50). The response vs control in vivo at 1 mg/kg in the data set with Sarcoma 180 tumor is 36%. Also, the “MLD (minimum lethal dose)” value in the data set with ddY-strain male mice was found to be 1.0 mg/kg. For the same molecule, in data set [1], the solubility was more than 20 mg/mL.
With `COC(=O)c1c(C)[nH]c2c(OC(C)=O)cc3c(c12)C(CCl)CN3C(=O)/C=C/c1ccc(OC)c(N(C)C)c1` (stereo not drawn) [Compound 51], the IC50 with HeLaS3 cells (setting [3]) worked out at 0.46 nM. Also, the response vs control in vivo at 4 mg/kg in the data set on Sarcoma 180 tumor (4.0 mg/kg, single i.v. one day after s.c. implantation, tumor volume ratio seven days after implantation) stood at 14%. Moreover, in the data set with ddY-strain male mice, the “MLD (minimum lethal dose)” value amounted to 4.0 mg/kg. This molecule returned a solubility in data set [1] of more than 10 mg/mL.
Consider `COC(=O)c1c(C)[nH]c2c(OC(=O)N3CCN(C)CC3)cc3c(c12)C(CBr)CN3C(=O)COc1ccc(OC(F)(F)F)cc1` (stereo not drawn) [Compound 25], for which the IC50 in the data set with HeLaS3 cells (HeLa S3, 72 h) was found to be 1100 nM. In the data set on Sarcoma 180 tumor, the response vs control in vivo at 2 mg/kg was 12%. The “MLD (minimum lethal dose)” value in the data set with ddY-strain male mice is 4.0 mg/kg. The same molecule displayed a solubility in data set [1] of 0.2 mg/mL (≈ 0.293 mM).
As to `COC(=O)c1c(C)[nH]c2c(OC(=O)NN3CCN(C)CC3)cc3c(c12)C(CCl)CN3C(=O)/C=C/c1cnc(OC)nc1` (stereo not drawn) [Compound 69], in the data set with HeLaS3 cells (HeLa S3, 72 h), the IC50 was determined as 1.4 nM. Besides, the response vs control in vivo at 4 mg/kg with Sarcoma 180 tumor worked out at 40%. Further, in the data set with ddY-strain male mice, the “MLD (minimum lethal dose)” value was 4.0 mg/kg. For the same molecule, the solubility in data set [1] is more than 10 mg/mL.
In turn, `COC(=O)c1c(C)[nH]c2c(OC(=O)N3CCN(C)CC3)cc3c(c12)C(CBr)CN3C(=O)/C=C/c1ccc(OC)nn1` (stereo not drawn) [Compound 14] yielded an IC50 in the data set with HeLaS3 cells (HeLa S3, 72 h) of 90 nM. Besides, in the data set on Sarcoma 180 tumor, the response vs control in vivo at 1 mg/kg is 31%. For the same molecule, the “MLD (minimum lethal dose)” value in the data set with ddY-strain male mice is recorded as 0.50 mg/kg. The same molecule displayed a solubility in data set [1] of more than 20 mg/mL.
Turning to `COC(=O)C1(C)NC2=C(C1=O)C13CC1CN(C(=O)c1cc4cc(OC)c(OC)c(OC)c4[nH]1)C3=CC2=O` (stereo not drawn) [DC-88A], in the data set with various bacteria, the antibacterial activity result is “antibacterial activity against various bacteria”. Further, the antitumor activity entry in the data set on melanoma B-16 is listed as “anti-tumor activity against melanoma B-16”.
Take `COC(=O)C1(C)Nc2c(O)cc3c(c2C1=O)C(CCl)CN3C(=O)c1cc2cc(OC)c(OC)c(OC)c2[nH]1` (stereo not drawn) [DC-89A2]: the antibacterial activity result in the data set with various bacteria is given as “antibacterial activity against various bacteria”. The antitumor activity result with melanoma B-16 is “antitumor activity against melanoma B-16”.
On to `COC(=O)C1(C)Nc2c(O)cc3c(c2C1=O)CC(Cl)CN3C(=O)c1cc2cc(OC)c(OC)c(OC)c2[nH]1` (stereo not drawn) [DC-89A1], for which, in the data set on various bacteria, the antibacterial activity result is “antibacterial activity against various bacteria”. Also, the antitumor activity result in the data set on melanoma B-16 is “antitumor activity against melanoma B-16”.
For `COC(=O)c1c(C)[nH]c2c(OC(=O)N3CCN(C)CC3)cc3c(c12)C(CBr)CN3C(=O)/C=C/c1cnc(OC)nc1` (stereo not drawn) [Compound 8], the IC50 with HeLaS3 cells (HeLa S3, 72 h) is 170 nM. Further, the response vs control in vivo at 2 mg/kg with Sarcoma 180 tumor came to 26%. Moreover, in the data set with ddY-strain male mice, the “MLD (minimum lethal dose)” value is on record as 4.0 mg/kg. In data set [1], this molecule gave a solubility of more than 20 mg/mL.
The like results for `COC(=O)c1c(C)[nH]c2c(OC(=O)c3ccc(CN4CCN(C)CC4)cc3)cc3c(c12)C(CBr)CN3C(=O)/C=C/c1ccc(OC)c(N(C)C)c1` (stereo not drawn) [Compound 66] were, in that order, 1.1 nM, 21%, 2.0 mg/kg and more than 20 mg/mL.
As to `COC(=O)C1(C)Nc2c(O)cc3c(c2C1=O)C(CBr)CN3C(=O)c1cc2cc(OC)c(OC)c(OC)c2[nH]1` (stereo not drawn) [DC-89B2], the antibacterial activity result in the data set on various bacteria was “antibacterial activity against various bacteria”. For the same molecule, in the data set with melanoma B-16, the antitumor activity result is recorded as “antitumor activity against melanoma B-16”.
`COC(=O)c1c(C)[nH]c2c1C13CC1CN(C(=O)/C=C/c1ccc(OC)cc1)C3=CC2=O` (stereo not drawn) [(B)]: in data set [2], the water-solubility entry is reported as “lack satisfactory water-solubility”.
Turning to `COC(=O)c1c(C)[nH]c2c(OC(=O)c3cccnc3)cc3c(c12)C(CBr)CN3C(=O)/C=C/c1ccc(OC)c(N(C)C)c1` (stereo not drawn) [Compound 55], the IC50 with HeLaS3 cells (HeLa S3, 72 h) stood at 0.43 nM. Further, the response vs control in vivo at 1 mg/kg in the data set with Sarcoma 180 tumor was 28%. In the data set on ddY-strain male mice, the “MLD (minimum lethal dose)” value came to 1.0 mg/kg. The same molecule came in with a solubility in data set [1] of more than 18 mg/mL.
Molecule `COC(=O)c1c(C)[nH]c2c(OC(=O)N3CCN(C)CC3)cc3c(c12)C(CBr)CN3C(=O)/C=C/c1ccc(OC)c(N(C)C)c1` (stereo not drawn) [Compound 43] gave an IC50 in the data set on HeLaS3 cells (HeLa S3, 72 h) of 52 nM. Moreover, in the data set with Sarcoma 180 tumor, the response vs control in vivo at 2 mg/kg was found to be 13%. Moreover, the “MLD (minimum lethal dose)” value with ddY-strain male mice came to 4.0 mg/kg. This molecule displayed a solubility in data set [1] of less than 0.5 mg/mL.
